Measurements reported in the supplement of paper PMC11061612.

What was measured:
[1] = test system: KYSE-70 (Esophageal Squamous Cell Carcinoma); experiment: combination Emax (second highest fraction inhibited in the dose matrix, 72 h); higher = more inhibition; extreme values may be limits of the assay
Procedure, shortened: (§1)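 After 24 hours at 37°C and 5% CO2 in 1536-well plates, cells in DMEM/F12 or RPMI plus 10% FBS received two-drug dose matrices for 72 hours. Viability came from CellTiter-Glo 2.0 luminescence and was scaled as inhibition, anchored at 0 by vehicle wells and at 1 by blank wells. Combination Emax is taken as the second-highest inhibition in the matrix, and Bliss excess as the observed combination effect less EA + EB − EA·EB, with EA and EB the single-agent effects.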

[2] = test system: Becker (Low Grade Glioma); experiment: as above
Procedure, shortened: as §1

[3] = test system: Calu-6 (Non-Small Cell Lung Carcinoma); experiment: as above
Procedure, shortened: as §1

[4] = test system: RMG-I (Ovarian Carcinoma); experiment: as above
Procedure, shortened: as §1

[5] = test system: FLO-1 (Esophageal Adenocarcinoma); experiment: as above
Procedure, shortened: as §1

[6] = test system: NCI-H1623 (Lung Adenocarcinoma); experiment: as above
Procedure, shortened: as §1

[7] = test system: CHL-1 (Melanoma); experiment: as above
Procedure, shortened: as §1

[8] = test system: AsPC-1 (Pancreatic Carcinoma); experiment: as above
Procedure, shortened: as §1

[9] = test system: NCI-H1563 (Lung Adenocarcinoma); experiment: as above
Procedure, shortened: as §1

[10] = test system: OCI-AML5 (Acute Myeloid Leukemia); experiment: as above
Procedure, shortened: as §1

[11] = test system: JHH-1 (Hepatocellular Carcinoma); experiment: as above
Procedure, shortened: as §1

[12] = test system: KYM-1 (Rhabdomyosarcoma); experiment: as above
Procedure, shortened: as §1

[13] = test system: EB-3 (Burkitt's Lymphoma); experiment: as above
Procedure, shortened: as §1

[14] = test system: RPMI-8866 (Chronic Myelogenous Leukemia); experiment: as above
Procedure, shortened: as §1

[15] = test system: NCI-H1755 (Lung Adenocarcinoma); experiment: as above
Procedure, shortened: as §1

[16] = test system: NCI-H1155 (Non-Small Cell Lung Carcinoma); experiment: as above
Procedure, shortened: as §1

[17] = test system: HTC-C3 (Thyroid Gland Carcinoma); experiment: as above
Procedure, shortened: as §1

[18] = test system: COLO-684 (Endometrial Carcinoma); experiment: as above
Procedure, shortened: as §1

[19] = test system: JHH-1 (Hepatocellular Carcinoma); experiment: Bliss excess, mean over the matrix (fraction); higher = more synergy
Procedure, shortened: as §1

[20] = test system: OVTOKO (Ovarian Carcinoma); experiment: as above
Procedure, shortened: as §1
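For Bliss excess, mean over the matrix in this document: after 72 h of two-drug dosing.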

Structure (SMILES)	combination Emax [1]	combination Emax [2]	combination Emax [3]	combination Emax [4]	combination Emax [5]	combination Emax [6]	combination Emax [7]	combination Emax [8]	combination Emax [9]	combination Emax [10]	combination Emax [11]	combination Emax [12]	combination Emax [13]	combination Emax [14]	combination Emax [15]	combination Emax [16]	combination Emax [17]	combination Emax [18]	Bliss excess [19]	Bliss excess [20]
CN(CCO)CC[C@H](CSc1ccccc1)Nc1ccc(S(=O)(=O)NC(=O)c2ccc(N3CCC([C@@H](O)c4ccccc4-c4ccc(Cl)cc4)CC3)cc2)cc1S(=O)(=O)C(F)(F)F [AZD4320] + C1CN(CCC1(C(=O)N[C@@H](CCO)C2=CC=C(C=C2)Cl)N)C3=NC=NC4=C3C=CN4 [Capivasertib] (first compound max 1 µM, 7x7, partner max 3 µM)	0.167	0.298	0.448	0.708	0.343	0.278	0.0871	0.643	0.389	1	0.355	0.0568	0.191	0.641	0.303	0.904	0.207	0.447	-0.149	-0.0381
CN(CCO)CC[C@H](CSc1ccccc1)Nc1ccc(S(=O)(=O)NC(=O)c2ccc(N3CCC([C@@H](O)c4ccccc4-c4ccc(Cl)cc4)CC3)cc2)cc1S(=O)(=O)C(F)(F)F [AZD4320] + C=CCn1c(=O)c2cnc(Nc3ccc(N4CCN(C)CC4)cc3)nc2n1-c1cccc(C(C)(C)O)n1 [AZD1775] (first compound max 1 µM, partner max 1 µM)	0.67	0.261	0.928	0.907	0.977	0.608	0.703	0.728	0.26	1	0.918	0.617	0.681	1	0.854	0.908	0.742	0.763	0.136	0.0002
CN(CCO)CC[C@H](CSc1ccccc1)Nc1ccc(S(=O)(=O)NC(=O)c2ccc(N3CCC([C@@H](O)c4ccccc4-c4ccc(Cl)cc4)CC3)cc2)cc1S(=O)(=O)C(F)(F)F [AZD4320] + CCN(CCO)CCCOc1ccc2c(Nc3cc(CC(=O)Nc4cccc(F)c4)[nH]n3)ncnc2c1 [AZD2811] (first compound max 1 µM, 7x7, partner max 1 µM)	0.391	0.224	0.801	0.728	0.699	0.197	0.73	0.541	0.188	1	0.82	0.125	0.241	0.952	0.43	0.918	0.347	0.178	0.0925	-0.0324
CN(CCO)CC[C@H](CSc1ccccc1)Nc1ccc(S(=O)(=O)NC(=O)c2ccc(N3CCC([C@@H](O)c4ccccc4-c4ccc(Cl)cc4)CC3)cc2)cc1S(=O)(=O)C(F)(F)F [AZD4320] + CN(C)CCCOc1ccc(-c2ccc3ncc4c(c3c2)n(C2CCOCC2)c(=O)n4C)cn1 [AZD0156] (first compound max 1 µM, 7x7, partner max 1 µM)	0.115	0.0869	0.395	0.79	0.386	0.191	0.113	0.602	0.321	1	0.444	0.14	0.387	0.552	0.229	0.717	0.37	0.148	-0.0513	-0.0217
CN(CCO)CC[C@H](CSc1ccccc1)Nc1ccc(S(=O)(=O)NC(=O)c2ccc(N3CCC([C@@H](O)c4ccccc4-c4ccc(Cl)cc4)CC3)cc2)cc1S(=O)(=O)C(F)(F)F [AZD4320] + C[C@@H]1COCCN1C2=NC(=NC(=C2)C3(CC3)[S@](=N)(=O)C)C4=C5C=CNC5=NC=C4 [AZD6738] (first compound max 1 µM, 7x7, partner max 10 µM)	0.493	0.846	0.891	0.882	0.742	0.871	0.893	0.662	0.433	1	0.838	0.95	0.578	1	0.831	0.985	0.881	0.728	-0.0234	-0.112
CN(CCO)CC[C@H](CSc1ccccc1)Nc1ccc(S(=O)(=O)NC(=O)c2ccc(N3CCC([C@@H](O)c4ccccc4-c4ccc(Cl)cc4)CC3)cc2)cc1S(=O)(=O)C(F)(F)F [AZD4320] + C[C@@H](Nc1cc(F)cc(F)c1)c1cc(C(=O)N(C)C)cc2c(=O)cc(N3CCOCC3)oc12 [AZD8186] (first compound max 1 µM, 7x7, partner max 3 µM)	0.211	0.431	0.592	0.868	0.486	0.865	0.408	0.739	0.565	1	0.747	0.197	0.332	0.864	0.45	0.97	0.407	0.396	-0.0258	0.0019
CN(CCO)CC[C@H](CSc1ccccc1)Nc1ccc(S(=O)(=O)NC(=O)c2ccc(N3CCC([C@@H](O)c4ccccc4-c4ccc(Cl)cc4)CC3)cc2)cc1S(=O)(=O)C(F)(F)F [AZD4320] + Cc1cc2ncnn2cc1Nc1ncc2c(n1)n(C1CCOCC1)c(=O)n2C [AZD7648] (first compound max 1 µM, 7x7, partner max 10 µM)	0.132	0.124	0.59	0.826	0.347	0.298	0.177	0.566	0.35	1	0.382	0.0895	0.334	0.665	0.286	0.772	0.342	0.197	-0.0576	-0.0393
CN(CCO)CC[C@H](CSc1ccccc1)Nc1ccc(S(=O)(=O)NC(=O)c2ccc(N3CCC([C@@H](O)c4ccccc4-c4ccc(Cl)cc4)CC3)cc2)cc1S(=O)(=O)C(F)(F)F [AZD4320] + Cn1cnc2c(F)c(Nc3ccc(Br)cc3Cl)c(C(=O)NOCCO)cc21 [Selumetinib] (first compound max 1 µM, 7x7, partner max 3 µM)	0.229	0.259	0.837	0.912	0.453	0.859	0.389	0.759	0.198	1	0.8	0.203	0.393	0.854	0.295	0.95	0.707	0.355	0.0527	0.0554
COc1nnc2ccc(N3CCC(c4ccc(OCCN5CCN(C)C(=O)[C@H]5C)cc4)CC3)nn12 [AZD5153] + C=CCn1c(=O)c2cnc(Nc3ccc(N4CCN(C)CC4)cc3)nc2n1-c1cccc(C(C)(C)O)n1 [AZD1775] (first compound max 1 µM, partner max 1 µM)	0.47	0.384	0.854	0.592	0.888	0.59	0.624	0.381	0.564	0.905	0.584	0.901	0.814	0.952	0.8	0.814	0.772	0.744	0.0173	0.0095
COc1nnc2ccc(N3CCC(c4ccc(OCCN5CCN(C)C(=O)[C@H]5C)cc4)CC3)nn12 [AZD5153] + CC1(C)CCC(CN2CCN(c3ccc(C(=O)NS(=O)(=O)c4ccc(NCC5CCOCC5)c([N+](=O)[O-])c4)c(Oc4cnc5[nH]ccc5c4)c3)CC2)=C(c2ccc(Cl)cc2)C1 [Venetoclax] (first compound max 1 µM, 7x7, partner max 1 µM)	0.409	0.334	0.157	0.599	0.51	0.419	0.531	0.176	0.491	1	0.391	0.859	0.806	0.814	0.454	0.71	0.763	0.528	-0.0256	-0.0682
COc1nnc2ccc(N3CCC(c4ccc(OCCN5CCN(C)C(=O)[C@H]5C)cc4)CC3)nn12 [AZD5153] + CCN(CCO)CCCOc1ccc2c(Nc3cc(CC(=O)Nc4cccc(F)c4)[nH]n3)ncnc2c1 [AZD2811] (first compound max 1 µM, 7x7, partner max 1 µM)	0.458	0.423	0.301	0.546	0.565	0.488	0.58	0.258	0.488	0.985	0.446	0.85	0.757	0.872	0.654	0.726	0.818	0.553	-0.0292	-0.0423
COc1nnc2ccc(N3CCC(c4ccc(OCCN5CCN(C)C(=O)[C@H]5C)cc4)CC3)nn12 [AZD5153] + C[C@@H]1COCCN1C2=NC(=NC(=C2)C3(CC3)[S@](=N)(=O)C)C4=C5C=CNC5=NC=C4 [AZD6738] (first compound max 1 µM, 7x7, partner max 10 µM)	0.424	0.536	0.87	0.561	0.823	0.672	0.747	0.367	0.664	0.95	0.663	0.962	0.833	0.958	0.874	0.942	0.845	0.797	0.0386	0.0999
